Data: ChEMBL document CHEMBL1158619, “Synthesis and biological activity of oxadiazole and triazolothiadiazole derivatives as tyrosinase inhibitors” (Bioorg Med Chem Lett, 2010)
pIC50: −log10 of the molar value. Active and inactive are the calls of the source. No cut-off for these calls is given here.

Each compound was assayed against T1, Tyrosinase (Agaricus bisporus, UniProt O42713).
T1 sequence (O42713 whole entry): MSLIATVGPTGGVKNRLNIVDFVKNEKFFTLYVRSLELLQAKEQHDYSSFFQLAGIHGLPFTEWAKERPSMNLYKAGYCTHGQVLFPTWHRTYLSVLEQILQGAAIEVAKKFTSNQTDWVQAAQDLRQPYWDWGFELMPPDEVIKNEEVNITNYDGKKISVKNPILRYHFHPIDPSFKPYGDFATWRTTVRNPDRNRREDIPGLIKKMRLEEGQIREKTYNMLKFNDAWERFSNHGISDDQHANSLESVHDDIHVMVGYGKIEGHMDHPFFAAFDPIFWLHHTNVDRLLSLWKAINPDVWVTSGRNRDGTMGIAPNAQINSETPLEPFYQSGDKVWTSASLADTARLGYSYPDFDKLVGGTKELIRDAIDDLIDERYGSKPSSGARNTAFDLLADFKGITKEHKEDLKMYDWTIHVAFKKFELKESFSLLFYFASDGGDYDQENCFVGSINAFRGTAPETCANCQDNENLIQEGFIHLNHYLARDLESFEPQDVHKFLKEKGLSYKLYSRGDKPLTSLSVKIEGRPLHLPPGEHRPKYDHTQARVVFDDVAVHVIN
Description: Inhibition of mushroom tyrosinase preincubated for 5 mins before addition of L-DOPA measured after 10 mins
For CN1CCN(Cn2nc(Cc3cccc4ccccc34)oc2=S)CC1, the pIC50 was 5.83. In the case of S=c1oc(Cc2cccc3ccccc23)nn1CN1CCCCC1, the pIC50 was 6.01. With S=c1oc(Cc2cccc3ccccc23)nn1CN1CCNCC1 the pIC50 was 6.06. S=c1oc(Cc2cccc3ccccc23)nn1CN1CCCC1 was tested, and the pIC50 was 5.88. In the case of S=c1oc(Cc2cccc3ccccc23)nn1CN1CCOCC1, the pIC50 was 5.87.

Each compound was assayed against T2, Tyrosinase (Agaricus bisporus) (UniProt O42713) (assay: Inhibition of mushroom tyrosinase at 50 uM preincubated for 5 mins before addition of L-DOPA measured after 10 mins).
T2 sequence (whole entry): T1 sequence (O42713 whole entry)
With c1ccc(-c2nnc(SCCN3CCCCC3)o2)cc1 the inhibition was “inactive”. For Clc1ccccc1-c1nnc2sc(-c3cccnc3)nn12, the inhibition was “inactive”. c1ccc(-c2nnc3sc(-c4nccc5ccccc45)nn23)cc1 was tested, and the inhibition was “inactive”. In the case of c1ccc2c(Cc3nnc(SCCN4CCCCC4)o3)cccc2c1, the inhibition was “inactive”. In the case of Cc1cc(C)n(-c2ccc(-c3nn4c(Cc5cccc6ccccc56)nnc4s3)cc2)n1, the inhibition was “inactive”. Cc1cc(C)n(-c2ccc(-c3nn4c(-c5ccccc5)nnc4s3)cc2)n1 was tested, and the inhibition was “inactive”. For Clc1ccccc1-c1nnc2sc(-c3nccc4ccccc34)nn12, the inhibition was “inactive”. For c1ccc2c(Cc3nnc4sc(-c5nccc6ccccc56)nn34)cccc2c1, the inhibition was “inactive”. In the case of Cc1cc(C)n(-c2ccc(-c3nn4c(-c5ccccc5Cl)nnc4s3)cc2)n1, the inhibition was “inactive”. For Clc1ccccc1-c1nnc(SCCN2CCCCC2)o1, the inhibition was “inactive”. For Clc1ccccc1-c1nnc(SCCN2CCOCC2)o1, the inhibition was “inactive”.
